Reference: patent US20210069223A1, “USE OF COMPOUND FOR PREVENTING AND/OR TREATING OBESITY” (TCI CO., LTD., priority 2019, published 2021)

System: bone marrow stromal cells of mice (ATCC CRL-2749) differentiated into adipocytes
Test: Promoting lipolysis: glycerol outside the cells measured by glycerol assay kit in adipocytes differentiated from bone marrow stromal cells
Assay type: cell-based
Details: cultured at 37° C. for 7 days, OD 540 nm, FIG. 12; for lipolysis promoted in comparison with the control group: 10 μg compound per mL in the well
Procedure: According to the present embodiment, bone marrow stromal cells of mice were used for testing the efficacy of the compound TC-CA-01, the compound TCI-CA-02, the compound TC-CA-03, the compound TCI-CA-04, and the compound TCI-CA-05 for prompting lipolysis. The bone marrow stromal cells of mice were purchased from American Type Culture Collection (American ATCC®), and the No. was CRL-2749M. Before differentiation, the cells were cultured in a pre-adipocyte expansion medium, including 90 vol % of an α-MEM (Minimum Essential Medium Eagle-Alpha Modification, purchased from Gibco, No. 11095080, America) cell culture medium, and 10 vol % of fetal bovine serum (purchased from Gibco, No. 10437-028, America). In addition, 1.0 vol % of penicillin-streptomycin (purchased from Gibco, No. 15140122, America) was added. A differentiation medium was used for differentiating the bone marrow stromal cells of mice, and included 90 vol % of α-MEM cell culture medium, and 10 vol % of fetal bovine serum. In addition, 1.0 vol % of penicillin-streptomycin was added.
The bone marrow stromal cells of mice were inoculated in a culture tray by 8×10^4 cells/0.5 mL of the above pre-adipocyte expansion medium in each well. Culture was performed at 37° C. for 7 days. The culture medium in each well was replaced by the above mentioned fresh differentiation medium once every 3 days during the period. After 7 days, a microscope was used to observe and confirm that the lipid droplets have formed so as to ensure the cells completely differentiated into adipocytes. […]
Then, a value of glycerol outside the cells was measured by a glycerol assay kit (purchased from Cayman Chemical, No. 10011725, America). […] This kit quantified the value of glycerol outside the cells by measuring the content of a product of a coupling enzyme reaction system capable of generating a bright purple, and used a glycerol standard in the kit to build a standard curve so as to reckon the value of the glycerol outside the cells of a sample. […]

C[C@@H]1O[C@@H](O[C@H]2[C@H](Oc3cc(O)c4c(c3)O[C@H](c3ccc(O)cc3)CC4=O)O[C@H](CO)[C@@H](O)[C@@H]2O)[C@H](O)[C@H](O)[C@H]1O [TCI-CA-02]
lipolysis promoted in comparison with the control group: 8%

COc1cc(/C=C/C(=O)O)ccc1O [TCI-CA-01, 4-hydroxy-3-methoxycinnamic acid]
efficacy for promoting lipolysis in comparison with the control group (result in words) (10 μg of each compound per mL in the well): effectively promoted

O=C1CC(c2ccc(O)cc2)Oc2cc(O)cc(O)c21 (stereo not drawn) [TCI-CA-03, 5,7-Dihydroxy-2-(4-hydroxyphenyl) chroman-4-one]
lipolysis promoted in comparison with the control group: 15%
